From US12692261B2, “Substituted heterocyclic compounds and therapeutic uses thereof” (Bayer Aktiengesellschaft, priority 2020, dated 2026)
Read-outs that look alike come from different tables or passages of the source.

Columns and labels:
[1] = biological target: T1, full-length human CSNK1D (Homo sapiens, UniProt P48730); experiment: CSNK1D Assay (ADP-Glo, 1 μM ATP); format: biochemical; details: Table 3, read-out: CSNK1D IC50 [mol/l] (median)
T1 construct: N-terminal Glutathion-S-Transferase (GST) and full-length human CSNK1D; purchased Life Technologies PV3665; host or cells: baculovirus infected insect cells
Description: CSNK1D-inhibitory activity of compounds of the present invention in presence of 1 μM adenosine-tri-phosphate (ATP) was quantified employing the CSNK1 D assay as described in the following paragraphs. In essence, the enzyme activity is measured by quantification of the adenosine-di-phosphate (ADP), which is generated as a co-product of the enzyme reaction, via the “ADP-Glo™ Kinase Assay” kit from the company Promega. This detection system works as follows: In a first step the ATP not consumed in the kinase reaction is quantitatively converted to cAMP employing an adenylate cyclase (“ADP-Glo-reagent”), then the adenylate cyclase is stopped and the ADP generated in the kinase reaction converted to ATP which generates in a luciferase-based reaction a glow-luminescence signal (“Kinase Detection Reagent”).
Recombinant fusion protein of N-terminal Glutathion-S-Transferase (GST) and full-length human CSNK1D, expressed by baculovirus infected insect cells and purified via Glutathion affinity chromatography, was purchased from Life Technologies (product no. PV3665) and used as enzyme. As substrate for the kinase reaction the biotinylated peptide Btn-Ahx-[…] (C-terminus in amide form) was used which can be purchased e.g. from the company Biosyntan (Berlin-Buch, Germany).
For the assay 50 nl of a 100 fold concentrated solution of the test compound in DMSO was pipetted into a white 1536-well microtiter plate (Greiner Bio-One, Frickenhausen, Germany), 2 μL of a solution of CSNK1D in aqueous assay buffer [50 mM HEPES pH 7.5, 10% (v/v) glycerol, 10 mM MgCl2, 50 mM NaCl, 1 mM dithiothreitol, 0.01% (w/v) bovine serum albumin, 0.01% (v/v) Triton X-100] were added and the mixture was incubated for 15 min at 22° C. to allow pre-binding of the test compounds to the enzyme before the start of the kinase reaction. […] The concentration of CSNK1D was adjusted depending of the activity of the enzyme lot and was chosen appropriate to have the assay in the linear range, a typical concentration is about 0.5 ng/μL. The reaction was stopped by the addition of 2.5 μL of “ADP-Glo-reagent” (1:1.5 fold diluted with water) and the resulting mixture was incubated at 22° C. for 1 h to convert the ATP not consumed in the kinase reaction completely […]. Subsequently 2.5 μL of the “kinase detection reagent” (1.2 fold more concentrated than recommended by the producer) were added, the resulting mixture was incubated at 22° C. for 1 h and then the luminescence measured with a suitable measurement instrument (e.g. Viewlux™ from Perkin-Elmer). The amount of emitted light was taken as a measure for the amount of ADP generated and thereby for the activity of the CSNK1D.

[2] = biological target: T2, wild-type Epidermal Growth Factor Receptor (EGFR) (Homo sapiens, UniProt P00533); experiment: WT-EGFR Kinase Assay (TR-FRET, 2 mM ATP); format: biochemical
T2 construct: a fragment of human EGFR (amino acids R669 to A1210); made in house; host or cells: Sf9 insect cells
From the text: Inhibitory activity of compounds of the present invention against wild-type Epidermal Growth Factor Receptor (EGFR) was quantified employing the TR-FRET based EGFR assay as described in the following paragraphs.
Recombinant fusion protein of N-terminal Glutathion-S-Transferase (GST) and a fragment of human EGFR (amino acids R669 to A1210), expressed in Sf9 insect cells and purified via affinity chromatography using Glutathion Sepharose as described above, was used as kinase. As substrate for the kinase reaction the biotinylated peptide biotin-Ahx-[…] (C-terminus in amide form) was used which can be purchased e.g. form the company Biosynthan GmbH (Berlin-Buch, Germany).
For the assay 50 nl of a 100 fold concentrated solution of the test compound in DMSO was pipetted into either a black low volume 384 well microtiter plate or a black 1536 well microtiter plate (both Greiner Bio-One, Frickenhausen, Germany), 2 μL of a solution of EGFR in aqueous assay buffer [50 mM Hepes pH 7.0, 10 mM MgCl2, 1 mM dithiothreitol, 0.5 mM EGTA, 0.3 mM activated sodium ortho-vanadate, 0.005% (w/v) bovine serum albumin, 0.005% (v/v) Tween-20] were added and the mixture was incubated for 15 min at 22° C. to allow pre-binding of the test compounds to the enzyme before the start of the kinase reaction. […] The concentration of EGFR was adjusted depending of the activity of the enzyme lot and was chosen appropriate to have the assay in the linear range, typical concentration was 7.6 pg/μL. The reaction was stopped by the addition of 3 μL of a solution of HTRF detection reagents (83.3 nM streptavidine-XL665 [Cisbio Bioassays, Codolet, France] and 1.67 nM PT66-Tb-Cryptate, a terbium-cryptate labelled anti-phospho-tyrosine antibody from Cisbio Bioassays [instead of the PT66-Tb-cryptate PT66-Eu-Chelate from Perkin Elmer can also be used]) in an aqueous EDTA-solution (133.3 mM EDTA, 0.2% (w/v) bovine serum albumin in 50 mM HEPES pH 7.5).
The resulting mixture was incubated 1 h at 22° C. to allow the binding of the biotinylated phosphorylated peptide to the streptavidine-XL665 and the PT66-Tb-Cryptate. Subsequently the amount of phosphorylated substrate was evaluated by measurement of the resonance energy transfer from the PT66-Tb-Cryptate to the streptavidine-XL665. Therefore, the fluorescence emissions at 620 nm and 665 nm after excitation at 337 nm were measured in a HTRF reader, e.g. a Pherastar (BMG Labtechnologies, Offenburg, Germany) or a Viewlux (Perkin-Elmer). The ratio of the emissions at 665 nm and at 622 nm was taken as the measure for the amount of phosphorylated substrate.

[3] = read-out: EGFR Wildtyp 2 mM ATP IC50 [mol/l] (median), Table 4
[4] = EGFR Wildtyp 2 mM ATP IC50 [mol/l] (median), Table 4

T1 sequence (P48730 whole entry): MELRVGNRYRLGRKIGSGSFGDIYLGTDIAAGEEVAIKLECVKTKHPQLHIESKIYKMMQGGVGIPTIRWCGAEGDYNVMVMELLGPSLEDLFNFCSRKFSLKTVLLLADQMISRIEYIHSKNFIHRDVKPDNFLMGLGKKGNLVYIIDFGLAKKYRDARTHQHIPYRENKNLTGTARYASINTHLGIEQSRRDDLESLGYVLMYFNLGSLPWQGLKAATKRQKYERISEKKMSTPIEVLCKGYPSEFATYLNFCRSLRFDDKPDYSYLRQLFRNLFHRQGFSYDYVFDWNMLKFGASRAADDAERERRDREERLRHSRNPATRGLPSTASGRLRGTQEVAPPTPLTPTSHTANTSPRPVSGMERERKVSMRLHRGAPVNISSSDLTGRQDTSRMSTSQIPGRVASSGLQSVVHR
T2 sequence (P00533 669-1210): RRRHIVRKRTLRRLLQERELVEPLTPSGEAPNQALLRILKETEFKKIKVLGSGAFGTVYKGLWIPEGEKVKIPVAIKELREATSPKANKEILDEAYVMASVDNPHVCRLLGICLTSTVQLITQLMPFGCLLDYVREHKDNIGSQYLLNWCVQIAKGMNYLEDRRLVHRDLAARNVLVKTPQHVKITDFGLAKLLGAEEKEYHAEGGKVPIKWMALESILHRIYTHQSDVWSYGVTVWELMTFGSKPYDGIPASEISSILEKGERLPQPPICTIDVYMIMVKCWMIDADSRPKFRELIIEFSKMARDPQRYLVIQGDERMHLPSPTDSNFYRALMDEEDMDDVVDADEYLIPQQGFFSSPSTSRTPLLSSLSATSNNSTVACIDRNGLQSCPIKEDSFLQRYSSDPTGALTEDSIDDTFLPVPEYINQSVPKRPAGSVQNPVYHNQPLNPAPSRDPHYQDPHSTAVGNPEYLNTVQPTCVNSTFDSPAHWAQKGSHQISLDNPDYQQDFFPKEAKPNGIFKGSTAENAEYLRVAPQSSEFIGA

Structure (SMILES) | IC50 [1] | IC50 [2, 3] | IC50 [2, 4]
O=C(Nc1cc(-c2[nH]c3cccnc3c2-c2cccc(F)n2)ccn1)C(CC(F)F)c1ccc(F)cc1 (single isomer, unassigned; (+)) [Example 27, (+)-4,4-difluoro-2-(4-fluorophenyl)-N-{4-[3-(6-fluoropyridin-2-yl)-1H-pyrrolo[3,2-b]pyridin-2-yl]pyridin-2-yl}butanamide] | 4.05 nM | > 20000 nM | 
Cc1ccc2[nH]c(-c3ccnc(NC(=O)C(CC(F)F)c4ccc(F)cc4)c3)c(-c3ccccn3)c2n1 (racemic) [Example 4, 4,4-difluoro-2-(4-fluorophenyl)-N-{4-[5-methyl-3-(pyridin-2-yl)-1H-pyrrolo[3,2-b]pyridin-2-yl]pyridin-2-yl}butanamide] | 9.45 nM |  | > 20000 nM
O=C(Nc1cc(-c2[nH]c3c(OCC(F)(F)F)ncnc3c2-c2ccccn2)ccn1)C(CC(F)F)c1ccc(F)cc1 (racemic) [Example 122, (2RS)-4,4-difluoro-2-(4-fluorophenyl)-N-{4-[7-(pyridin-2-yl)-4-(2,2,2-trifluoroethoxy)-5H-pyrrolo[3,2-d]pyrimidin-6-yl]pyridin-2-yl}butanamide] | 7.04 nM |  | > 20000 nM
O=C(Nc1cc(-c2[nH]c3c(OCC(F)F)cc(F)nc3c2-c2ccccn2)ccn1)C(CC(F)F)c1ccc(F)cc1 (single isomer, unassigned) [Example 30, (2R or S)—N-{4-[7-(2,2-difluoroethoxy)-5-fluoro-3-(pyridin-2-yl)-1H-pyrrolo[3,2-b]pyridin-2-yl]pyridin-2-yl}-4,4-difluoro-2-(4-fluorophenyl)butanamide] | 14.7 nM | > 20000 nM | 
O=C(Nc1cc(-c2[nH]c3c(N4CCNCC4)ccnc3c2-c2ccccn2)ccn1)C(CC(F)F)c1ccc(F)cc1 (single isomer, unassigned) [Example 94, (2R or S)-4,4-difluoro-2-(4-fluorophenyl)-N-{4-[7-(piperazin-1-yl)-3-(pyridin-2-yl)-1H-pyrrolo[3,2-b]pyridin-2-yl]pyridin-2-yl}butanamide] | 3.67 nM | > 20000 nM | 
O=C(Nc1cc(-c2[nH]c3cncnc3c2-c2ccccn2)ccn1)C(CC(F)F)c1ccc(F)cc1 (racemic) [Example 13, 4,4-difluoro-2-(4-fluorophenyl)-N-{4-[7-(pyridin-2-yl)-5H-pyrrolo[3,2-d]pyrimidin-6-yl]pyridin-2-yl}butanamide] | 12.3 nM |  | > 20000 nM
O=C(Nc1cc(-c2[nH]c3c(OCC(F)(F)F)ncnc3c2-c2ccccn2)ccn1)C(CC(F)(F)F)c1ccc(F)cc1 (racemic) [Example 125, (2RS)-4,4,4-trifluoro-2-(4-fluorophenyl)-N-{4-[7-(pyridin-2-yl)-4-(2,2,2-trifluoroethoxy)-5H-pyrrolo[3,2-d]pyrimidin-6-yl]pyridin-2-yl}butanamide] | 14.2 nM |  | > 20000 nM
O=C(Nc1cc(-c2[nH]c3c(OCC4CC4)ncnc3c2-c2ccccn2)ccn1)C(CC(F)F)c1ccc(F)cc1 (racemic) [Example 128, (2RS)—N-{4-[4-(cyclopropylmethoxy)-7-(pyridin-2-yl)-5H-pyrrolo[3,2-d]pyrimidin-6-yl]pyridin-2-yl}-4,4-difluoro-2-(4-fluorophenyl)butanamide] | 8.51 nM |  | 11200 nM
Cc1cnc2c(-c3ccccn3)c(-c3ccnc(NC(=O)C(CC(F)F)c4ccc(F)cc4)c3)[nH]c2c1 (racemic) [Example 7, 4,4-difluoro-2-(4-fluorophenyl)-N-{4-[6-methyl-3-(pyridin-2-yl)-1H-pyrrolo[3,2-b]pyridin-2-yl]pyridin-2-yl}butanamide] | 4.13 nM |  | > 20000 nM
O=C(Nc1cc(-c2[nH]c3c(OC4CC4)cc(F)nc3c2-c2ccccn2)ccn1)C(CC(F)F)c1ccc(F)cc1 (racemic) [Example 42, (rac)-N-{4-[7-(cyclopropyloxy)-5-fluoro-3-(pyridin-2-yl)-1H-pyrrolo[3,2-b]pyridin-2-yl]pyridin-2-yl}-4,4-difluoro-2-(4-fluorophenyl)butanamide] | 14.4 nM |  | > 20000 nM
O=C(Nc1cc(-c2[nH]c3c(OCC(F)F)cc(F)nc3c2-c2ccccn2)ccn1)C(CC(F)F)c1ccc(F)cc1 (racemic) [Example 28, (2RS)—N-{4-[7-(2,2-difluoroethoxy)-5-fluoro-3-(pyridin-2-yl)-1H-pyrrolo[3,2-b]pyridin-2-yl]pyridin-2-yl}-4,4-difluoro-2-(4-fluorophenyl)butanamide] | 4 nM |  | > 20000 nM
O=C(Nc1cc(-c2[nH]c3cc(F)cnc3c2-c2ccccn2)ccn1)C(CC(F)F)c1ccc(F)cc1 (single isomer, unassigned; (+)) [Example 17, (+)-4,4-difluoro-2-(4-fluorophenyl)-N-{4-[6-fluoro-3-(pyridin-2-yl)-1H-pyrrolo[3,2-b]pyridin-2-yl]pyridin-2-yl}butanamide] | 3.16 nM |  | > 20000 nM
O=C(Nc1cc(-c2[nH]c3nc(OC(F)F)cnc3c2-c2ccccn2)ccn1)C(CC(F)F)c1ccc(F)cc1 (stereo not drawn) [Example 105, N-{4-[3-(difluoromethoxy)-7-(pyridin-2-yl)-5H-pyrrolo[2,3-b]pyrazin-6-yl]pyridin-2-yl}-4,4-difluoro-2-(4-fluorophenyl)butanamide] | 12.3 nM |  | > 20000 nM
COc1cnc2c(-c3ccccn3)c(-c3ccnc(NC(=O)C(CC(F)F)c4ccc(F)cc4)c3)[nH]c2n1 (single isomer, unassigned) [Example 102, 4,4-difluoro-2-(4-fluorophenyl)-N-{4-[3-methoxy-7-(pyridin-2-yl)-5H-pyrrolo[2,3-b]pyrazin-6-yl]pyridin-2-yl}butanamide] | 75 nM |  | > 20000 nM
O=C(Nc1cc(-c2[nH]c3c(OC4CC4)cc(F)nc3c2-c2ccccn2)ccn1)C(CC(F)F)c1ccc(F)cc1 (single isomer, unassigned) [Example 43, N-{4-[7-(cyclopropyloxy)-5-fluoro-3-(pyridin-2-yl)-1H-pyrrolo[3,2-b]pyridin-2-yl]pyridin-2-yl}-4,4-difluoro-2-(4-fluorophenyl)butanamide] | 7.64 nM |  | > 20000 nM
